Experimental data as given in US7396837B2, “Antitumoral analogs of lamellarins” (Pharma Mar, S.A.U., priority 2002, dated 2008).
Read-outs that look alike come from different tables or passages of the source.

How the values were obtained:
Format in all cases: cell-based
IGROV = test: SRB colorimetric cell growth inhibition assay, IGROV; details: IGROV; for GI50: GI=growth inhibition, read-out: GI50 IGROV; for CC50: cell killing (cytotoxic effect), read-out: LC50 IGROV; for IC (TGI): total growth inhibition (cytostatic effect), read-out: TGI IGROV
Outline: (§1)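 Quantitation uses the sulforhodamine B reaction on cells exposed to sample for the whole assay period; results (mean ± SD, n = 3 wells) yield GI, TGI and LC.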

A-549 = test: SRB colorimetric cell growth inhibition assay, A-549; details: Homo sapiens, A549, A-549; for GI50: GI=growth inhibition, read-out: GI50 A-549; for CC50: cell killing (cytotoxic effect), read-out: LC50 A-549; for IC (TGI): total growth inhibition (cytostatic effect), read-out: TGI A-549
Outline: as §1

SK-BR-3 = test: SRB colorimetric cell growth inhibition assay, SK-BR-3; details: for GI50: GI=growth inhibition, read-out: GI50 SK-BR-3; for CC50: cell killing (cytotoxic effect), read-out: LC50 SK-BR-3
Outline: as §1

HT-29 = test: SRB colorimetric cell growth inhibition assay, HT-29; details: for GI50: GI=growth inhibition, read-out: GI50 HT-29; for CC50: cell killing (cytotoxic effect), read-out: LC50 HT-29; for IC (TGI): total growth inhibition (cytostatic effect), read-out: TGI HT-29
Outline: as §1

SK-MEL-28 = test: SRB colorimetric cell growth inhibition assay, SK-MEL-28; details: for GI50: GI=growth inhibition, read-out: GI50 MEL-28; for CC50: cell killing (cytotoxic effect), read-out: LC50 MEL-28
Outline: as §1

LoVo = test: SRB colorimetric cell growth inhibition assay, LoVo; details: Homo sapiens, LoVo; for GI50: GI=growth inhibition, read-out: GI50 LOVO; for CC50: cell killing (cytotoxic effect), read-out: LC50 LOVO; for IC (TGI): total growth inhibition (cytostatic effect), read-out: TGI LOVO
Outline: as §1

IGROV-ET = test: SRB colorimetric cell growth inhibition assay, IGROV-ET (ET-743 resistant); details: IGROV-ET; for GI50: GI=growth inhibition, read-out: GI50 IGROV-ET; for CC50: cell killing (cytotoxic effect), read-out: LC50 IGROV-ET; for IC (TGI): total growth inhibition (cytostatic effect), read-out: TGI IGROV-ET
Outline: as §1

PANC-1 = test: SRB colorimetric cell growth inhibition assay, PANC-1; details: for GI50: GI=growth inhibition, read-out: GI50 PANC-1; for CC50: cell killing (cytotoxic effect), read-out: LC50 PANC-1
Outline: as §1

H-MEC-1 = test: SRB colorimetric cell growth inhibition assay, H-MEC-1; details: Homo sapiens, HMEC-1, H-MEC-1; for GI50: GI=growth inhibition, read-out: GI50 H-MEC-1; for IC (TGI): total growth inhibition (cytostatic effect), read-out: TGI H-MEC-1
Outline: (§2)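 Growth inhibition (GI), total growth inhibition (TGI, cytostatic) and lethal concentration (LC, cytotoxic) come from an SRB-based colorimetric measure of growth and viability. Data are triplicate-well means ± SD.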

[1] = as above; details: human, H-MEC-1, cell killing (cytotoxic effect), read-out: LC50 H-MEC-1
Outline: as §2

K-562 = test: SRB colorimetric cell growth inhibition assay, K-562; details: Homo sapiens, K562, K-562; for GI50: GI=growth inhibition, read-out: GI50 K-562; for CC50: cell killing (cytotoxic effect), read-out: LC50 K-562; for IC (TGI): total growth inhibition (cytostatic effect), read-out: TGI K-562
Outline: as §1

LoVo-Dox = test: SRB colorimetric cell growth inhibition assay, LoVo-Dox (MDR); details: Homo sapiens, LOVO-DOX; for GI50: GI=growth inhibition, read-out: GI50 LOVO-DOX; for CC50: cell killing (cytotoxic effect), read-out: LC50 LOVO-DOX; for IC (TGI): total growth inhibition (cytostatic effect), read-out: TGI LOVO-DOX
Outline: as §1

SKOV-3 = test: SRB colorimetric cell growth inhibition assay, SKOV-3; details: Homo sapiens; for GI50: SK-OV-3, SKOV-3, GI=growth inhibition, read-out: GI50 SKOV-3; for LC50 (concentration causing 50% net cell killing) / IC (TGI): SK-OV-3, SKOV-3; for LC50 (concentration causing 50% net cell killing): cell killing (cytotoxic effect), read-out: LC50 SKOV-3; for IC (TGI): total growth inhibition (cytostatic effect), read-out: TGI SKOV-3
Description: A colorimetric type of assay, using sulforhodamine B (SRB) reaction has been adapted for a quantitative measurement of cell growth and viability (following the technique described by P. A. Skehan, et al., J. Natl. Cancer Inst. 1990, 82, 1107-1112).
This form of assay employs 96 well cell culture microplates of 9 mm diameter (T. Mosmann et al., J. of Immunological Methods 1983, 65, 55-63; G. T. Faircloth et al., J. of Tissue and Culture Methods 1988, 11, 201-205).
Most of the cell lines are obtained from American Type Culture Collection (ATCC) derived from different human cancer types.
The values for mean +/− SD of data from triplicate wells are calculated. Some parameters for cellular responses can be calculated: GI=growth inhibition, TGI=total growth inhibition (cytostatic effect) and LC=cell killing (cytotoxic effect).

LNCaP = test: SRB colorimetric cell growth inhibition assay, LNCaP; details: Homo sapiens, LNCaP, LN-caP; for GI50: GI=growth inhibition, read-out: GI50 LN-caP; for CC50: cell killing (cytotoxic effect), read-out: LC50 LN-caP; for IC (TGI): total growth inhibition (cytostatic effect), read-out: TGI LN-caP
Outline: as §1

DU-145 = test: SRB colorimetric cell growth inhibition assay, DU-145; details: for GI50: GI=growth inhibition, read-out: GI50 DU-145; for CC50: cell killing (cytotoxic effect), read-out: LC50 DU-145
Outline: as §1

[2] = Homo sapiens, SK-MEL-28, MEL-28

COc1cc(-c2c3c4cc(OC)c(O)cc4oc(=O)c3n3ccc4cc(OC)c(OC)cc4c23)ccc1O [Compound 26]
GI50 (IGROV; Homo sapiens): 0.504 µM
CC50 (IGROV; Homo sapiens): 13 µM
IC (TGI) (IGROV; Homo sapiens): 2.3 µM
GI50 (A-549): 1.11 µM
CC50 (A-549): 19.5 µM
IC (TGI) (A-549): 8.1 µM
GI50 (SK-BR-3; Homo sapiens, SK-BR-3, SK-BR-3): 0.0966 µM
CC50 (SK-BR-3; Homo sapiens, SK-BR-3, SK-BR-3): 13.6 µM
IC (TGI) (SK-BR-3; Homo sapiens, SK-BR-3, SK-BR-3, total growth inhibition (cytostatic effect), read-out: TGI SK-BR-3): 1.09 µM
GI50 (HT-29; Homo sapiens, HT-29, HT-29): 9.17 µM
CC50 (HT-29; Homo sapiens, HT-29, HT-29): 19.5 µM
IC (TGI) (HT-29; Homo sapiens, HT-29, HT-29): 19.5 µM
GI50 (SK-MEL-28; [2]): 2.08 µM
CC50 (SK-MEL-28; [2]): 19.5 µM
IC (TGI) (SK-MEL-28; Homo sapiens, SK-MEL-28, MEL-28, total growth inhibition (cytostatic effect), read-out: TGI MEL-28): 7.79 µM
GI50 (LoVo): 1.19 µM
CC50 (LoVo): 19.5 µM
IC (TGI) (LoVo): 10 µM
GI50 (IGROV-ET; Homo sapiens): 0.574 µM
CC50 (IGROV-ET; Homo sapiens): 19.5 µM
IC (TGI) (IGROV-ET; Homo sapiens): 2.08 µM
GI50 (PANC-1; Homo sapiens, PANC-1, PANC-1): 1.07 µM
CC50 (PANC-1; Homo sapiens, PANC-1, PANC-1): 19.5 µM
IC (TGI) (PANC-1; Homo sapiens, PANC-1, PANC-1, total growth inhibition (cytostatic effect), read-out: TGI PANC-1): 8.8 µM
GI50 (H-MEC-1): 0.798 µM
IC (TGI) (H-MEC-1): 19.5 µM
LC50 (concentration giving 50% net cell killing) ([1]; H-MEC-1 cells): 19.5 µM
GI50 (K-562): 0.785 µM
CC50 (K-562): 16.1 µM
IC (TGI) (K-562): 3.41 µM
GI50 (LoVo-Dox): 0.867 µM
CC50 (LoVo-Dox): 19.5 µM
IC (TGI) (LoVo-Dox): 7.63 µM
GI50 (SKOV-3): 0.874 µM
LC50 (concentration causing 50% net cell killing) (SKOV-3): 19.5 µM
IC (TGI) (SKOV-3): 5.53 µM
GI50 (LNCaP): 0.711 µM
CC50 (LNCaP): 14.7 µM
IC (TGI) (LNCaP): 4.3 µM
GI50 (DU-145; Homo sapiens, DU-145, DU-145): 0.611 µM
CC50 (DU-145; Homo sapiens, DU-145, DU-145): 19.5 µM
IC (TGI) (DU-145; Homo sapiens, DU-145, DU-145, total growth inhibition (cytostatic effect), read-out: TGI DU-145): 2.94 µM

COc1cc2ccn3c(c(-c4ccc(OC(=O)[C@@H](N)Cc5ccccc5)c(OC)c4)c4c5cc(OC)c(OC(=O)[C@@H](N)Cc6ccccc6)cc5oc(=O)c43)c2cc1OC [Compound 18]
CC50 (IGROV; Homo sapiens): 7.91 µM
IC (TGI) (IGROV; Homo sapiens): 3.21 µM
GI50 (IGROV): 1.31 µM
GI50 (A-549): 1.61 µM
CC50 (A-549): 9.99 µM
IC (TGI) (A-549): 4 µM
CC50 (SK-BR-3; Homo sapiens, SK-BR-3, SK-BR-3): 10.5 µM
GI50 (SK-BR-3; SK-BR-3): 0.458 µM
TGI SK-BR-3 (SK-BR-3; SK-BR-3, total growth inhibition (cytostatic effect)): 2.14E−06 Molar
GI50 (HT-29; HT-29): 0.819 µM
CC50 (HT-29; Homo sapiens, HT-29, HT-29): 12.3 µM
IC (TGI) (HT-29; Homo sapiens, HT-29, HT-29): 4.54 µM
GI50 (SK-MEL-28; MEL-28): 0.524 µM
CC50 (SK-MEL-28; MEL-28): 4.43 µM
TGI MEL-28 (SK-MEL-28; MEL-28, total growth inhibition (cytostatic effect)): 1.44E−06 Molar
GI50 (LoVo): 0.664 µM
CC50 (LoVo): 12.3 µM
IC (TGI) (LoVo): 2.37 µM
CC50 (IGROV-ET; Homo sapiens): 12.3 µM
IC (TGI) (IGROV-ET; Homo sapiens): 5.14 µM
GI50 (IGROV-ET): 2 µM
CC50 (PANC-1; Homo sapiens, PANC-1, PANC-1): 12.3 µM
GI50 (PANC-1; PANC-1): 0.992 µM
TGI PANC-1 (PANC-1; PANC-1, total growth inhibition (cytostatic effect)): 3.70E−06 Molar
GI50 (H-MEC-1): 0.494 µM
IC (TGI) (H-MEC-1): 0.846 µM
LC50 (concentration giving 50% net cell killing) [1]: 2.93 µM
GI50 (K-562): 0.558 µM
CC50 (K-562): 8.64 µM
IC (TGI) (K-562): 1.51 µM
GI50 (LoVo-Dox): 1.08 µM
CC50 (LoVo-Dox): 12.1 µM
IC (TGI) (LoVo-Dox): 3.67 µM
GI50 (SKOV-3): 1.22 µM
LC50 (concentration causing 50% net cell killing) (SKOV-3): 6.51 µM
IC (TGI) (SKOV-3): 2.82 µM
GI50 (LNCaP): 0.359 µM
CC50 (LNCaP): 4.27 µM
IC (TGI) (LNCaP): 1.27 µM
GI50 (DU-145; DU-145): 0.505 µM
TGI DU-145 (DU-145; DU-145, total growth inhibition (cytostatic effect)): 1.41E−06 Molar
CC50 (DU-145; Homo sapiens, DU-145, DU-145): 7.04 µM
